From patent US6716582B2 (priority 2000, dated 2004)
Like-named read-outs stand apart in the source and are kept apart here.

Tests used:
[1] = system: clpB-luxCDABE gene fusion; settings: 38 min
Source text: Plasmid DNA was isolated from lux-a.pk043.d3, digested with restriction enzyme XmaI, and ligated with T4 DNA ligase. The ligation reaction was used to transform E. coli strain DPD 1675 by electroporation. Transformants were selected by ampicillin resistance. […] The response to ethanol treatment of two of these light producing transformants that putatively contain inverted chromosomal inserts, of lux-a.pk054.c3 (DPD2243) that contains a plasmid with the clpB promoter operably linked to the luxCDABE reporter and of the original lux-a.pk043.d3 were compared. Actively growing cultures at 37° C. in LB medium were treated with 4% ethanol and light production was quantitated at 37° C. using a microplate luminometer (Dynex ML3000). Table 17 summarizes the average bioluminescence of duplicate samples at 38 min after treatment.

[2] = system: heat shock regulon luxCDABE gene fusions; experiment: heat shock regulon lux fusions: stress response in liquid LB; assay type: cell-based, E. coli; settings: each of the six heat shock fusion strains; at least two of 5, 4, 3, 2 (v/v)% ethanol
Method: (§1) To test the stress responses, one or two single colonies of each selected strain were used to inoculate 5.0 ml of LB medium containing 150 μg/ml of ampicillin. These cultures were grown overnight at 37° C. then diluted by adding 50 μl or 100 μl of the overnight culture into 10.0 ml of fresh LB medium (without ampicillin) and grown with agitation at 37° C. until the culture was in exponential phase with readings on a Klett-Summerson colorimeter containing the red filter of between 10 and 40. These actively growing cultures were immediately used to initiate a stress response experiment by adding 50 μl of cultures to 50 μl of LB medium containing various concentrations of chemical in the wells a 96 well luminometer plate. This division of the actively growing culture at the time of chemical addition ensured identical populations were present when the stress was imposed. Light production was measured in a Dynex ML3000 luminometer at 37° C. The dimensionless units of light production, relative light units (RLU), are obtained by comparison with the light reading from an internal light-emitting diode.

[3] = system: SOS regulon luxCDABE gene fusions; experiment: SOS regulon lux fusions: stress response in liquid LB; assay type: cell-based, E. coli
Method: as §1
The ability of these promoter-luxCDABE fusions to report activation of the SOS stress response was tested using nalidixic acid, a known, potent chemical inducer. The final concentrations of nalidixic acid were 1, 5, 25, and 125 μg/ml for all but strain DPD2293, which was tested at 80, 40, 20, 10, 5, 2.5, and 1.25 μg/ml.
Specificity of responses was tested by measuring the effect of ethanol on these SOS regulon gene fusions.

[4] = system: ahpC-luxCDABE gene fusions in pcnB- host; settings: both ahpC-lux fusions in pcnB- host; 0.004-0.00006%, all seven concentrations
Method: as §1

[5] = system: OxyR regulon ahpC-luxCDABE gene fusions; settings: three ahpC-lux strains; 0.016-0.00025%
Method: as §1
To test if these strains would report on activation of the OxyR-controlled oxidative stress response, each was treated with hydrogen peroxide at 0.016, 0.008, 0.004, 0.002, 0.001, 0.0005, 0.00025%.

[6] = system: E. coli strain MG1655 gene expression; experiment: DNA microarray experiment with mitomycin C; assay type: cell-based; settings: MMC 250 ng/ml, 40 min
Method: The E. coli strain MG1655 (rph-1) was used. Cultures grown in LB at 37° C. overnight were diluted 1 to 250 into fresh LB and grown at 37° C. with aeration. Each subculture was split into two 100 ml cultures when the reading on a Klett-Sammerson calorimeter with the red filter reads 20 Klett units. MMC (Sigma, dissolved in ddH2O) at a final concentration of 250 ng/ml, a sub-lethal dose, was added to one of the split cultures. The other culture was a no addition control. Incubation at 37° C. continued for another 40 minutes, then cells were collected for preparing total RNA. The MMC treated culture and its control reached 60 and 55 Klett units, respectively after 40 minute treatment.
Total RNA purification, first-strand cDNA labeling, preparation of the E. coli whole genome high-density microarray chips, hybridization and data analysis were done as previously described (Wei et al. (2001) J. Bacteriol. 183: 545-556). Both cy3 and cy5 were used in probe labeling, and the hybridization experiments were repeated by swapping the fluorescence cy dyes between each pair of MMC treated sample and its blank control.
Ratios of expression in the mitomycin C treated samples vs. controls were calculated for all genes in the DNA array. Ratios greater than or equal to 2 were considered induced genes, while those with ratios less than 2 fold were considered uninduced. The known SOS genes (Kim et al., (1997) Proc Natl Acad Sci USA Dec. 9, 1997; 94(25):13792-7; Lomba et al., (1997) FEMS Microbiol Lett 156:119-122; Walker, G. C. (1996). In Escherichia coli and Salmonella: Cellular and Molecular Biology. ASM Press pp.1400-1416) fell into both the induced (Table 11) and uninduced classes (Table 12).

yebF-luxCDABE fusion = experiment: inverted yebF-luxCDABE fusion induction by DNA damaging agents; assay type: cell-based, E. coli; settings: yebF-luxCDABE fusion; mitomycin C, FIG. 2
Source text: In this case, a divergent promoter to the purT gene was present in the chromosomal fragment and strains containing the backward yebF fusion produced light. Following isolation of plasmid DNA, XmaI digestion that releases the insert DNA from the vector, religation and transformation, 10% of the transformants produced light. […] The orientation of the inserted segment to yield a fusion of yebF to the luxCDABE operon was confirmed by DNA sequence analysis.
To test inverting of a chromosomal segment in a plasmid containing divergent promoters, the backward fusion to yebF was chosen. […] In this case, a divergent promoter to the purT gene was present in the chromosomal fragment and strains containing the backward yebF fusion produced light. Following XmaI digestion, religation and transformation, 10% of the transformants produced light. […] This was verified by DNA sequence analysis. Thus, inverting chromosomal segments containing divergent promoters is possible and is facilitated if the two promoters can be distinguished by their biological activity.

[7] = system: luxCDABE gene fusions to MMC array genes; experiment: Lux-A Collection fusions tested for MMC induction; assay type: cell-based, E. coli
Method: The Lux-A Collection of reporter gene fusions was examined for presence of fusions to the genes in Table 11. […] Each of these was tested for induction by MMC at several doses over a time course of 100 minutes.
As expected, the expression of the known SOS genes was elevated; however the expression of several was elevated less than 2-fold (Table 12) and as such were within a large group of 792 genes the expression of which was elevated by 20% or more. Most of these are likely due to artifacts in the array data rather than to actual biologically relevant responses. To test if strains carrying luxCDABE gene fusions would yield the expected positive result, the three gene fusions that were available in the Lux-A Collection of reporter gene fusions were tested for mitomycin C responses.

[8] = system: SoxR/S regulon luxCDABE gene fusions; experiment: SoxR/S regulon lux fusions: stress response in liquid LB; assay type: cell-based, E. coli; settings: each of four strains; 1000-16 μg/ml, all seven concentrations
Method: Like the SOS and heat shock regulon fusions, these had basal light production greater than the promoterless parental plasmid indicating the presence of a promoter. Responsiveness of four of these strains to a known inducer of the SoxR/S regulon, methyl viologen, was tested at 1000, 500, 250, 125, 62, 31 and 16 μg/ml. […] Table 8 gives the response ratio for 250 μg/ml at 120 minutes of treatment for the four tested strains. Here again, the biologically appropriate response was observed.

CCO [Ethanol]
Light production in LB + 4% ethanol ([1]; Inverted lux-a.pk043.d3, second isolate): 29.63 RLU | Light production in LB + 4% ethanol ([1]; inverted lux-a.pk043.d3, first isolate): 8.17 RLU | bioluminescence vs untreated control [2]: increased bioluminescence | response ratio ([3]; DPD2249 dinP-lux, 3% ethanol, 40 min): 0.80 | bioluminescence vs untreated control ([3]; SOS regulon fusions, 5, 4, or 3% (v/v) ethanol): little to no increased bioluminescence

OO [H2O2, hydrogen peroxide]
bioluminescence induction [4]: dramatically induced increased bioluminescence | bioluminescence induction [5]: minimally induced

CO[C@@]12[C@H](COC(N)=O)C3=C(C(=O)C(C)=C(N)C3=O)N1C[C@@H]1N[C@@H]12 [MMC, mitomycin C]
Fold induction/array expt ([6]; b0531): 3.3 | Fold induction/array expt ([6]; b0571 (ylcA)): 2.2 | Fold induction/array expt ([6]; b1228): 2.5 | Fold induction/array expt ([6]; b1847 (yebF)): 3.3 | Fold induction/array experiment ([6]; b1848 (yebG)): 5.8 | Fold induction/array expt ([6]; b2559): 2.0 | Fold induction/array expt ([6]; b2940): 2.3 | Fold induction/array expt ([6]; b3199): 2.0 | Fold induction/array expt ([6]; cspA): 2.9 | Fold induction/array experiment ([6]; dinB (dinP)): 2.0 | Fold induction/array experiment ([6]; dinD): 2.2 | Fold induction/array experiment ([6]; dinF): 1.8 | Fold induction/array experiment ([6]; dinG): 1.4 | Fold induction/array experiment ([6]; dinI): 6.7 | Fold induction/array expt ([6]; dniR): 2.1 | Fold induction/array expt ([6]; exbD): 2.2 | Fold induction/array experiment ([6]; himA): 1.3 | Fold induction/array expt ([6]; hslS): 6.7 | Fold induction/array expt ([6]; hslT): 4.0 | Fold induction/array expt ([6]; infA): 2.3 | Fold induction/array expt ([6]; insA_4): 2.1 | Fold induction/array expt ([6]; insB_1): 2.1 | Fold induction/array expt ([6]; insB_2): 2.2 | Fold induction/array experiment ([6]; lexA): 3.6 | Fold induction/array expt ([6]; mioC): 2.1 | Fold induction/array experiment ([6]; polB (dinA)): 1.2 | Fold induction/array experiment ([6]; recA): 3.0 | Fold induction/array experiment ([6]; recN): 8.3 | Fold induction/array experiment ([6]; ruvA): 2.0 | Fold induction/array experiment ([6]; ruvB): 1.5 | Fold induction/array expt ([6]; secG): 2.2 | Fold induction/array experiment ([6]; sulA): 5.8 | Fold induction/array expt ([6]; trkH): 2.1 | Fold induction/array experiment ([6]; umuC): 2.1 | Fold induction/array experiment ([6]; umuD): 1.2 | Fold induction/array experiment ([6]; uvrA): 2.3 | Fold induction/array experiment ([6]; uvrB): 2.1 | Fold induction/array experiment ([6]; uvrD): 1.4 | Fold induction/array expt ([6]; xseA): 2.0 | induction of bioluminescence (yebF-luxCDABE fusion): induction by mitomycin C was demonstrated | gene expression response ([7]; four fusions to genes not previously known MMC inducible): no evidence of increased gene expression | induction response ([7]; four fusions to known SOS genes of Table 11, several doses, 100 min time course): induction of increased bioluminescence | bioluminescence response ([7]; three fusions to SOS genes of Table 12): induced increased bioluminescence

C[n+]1ccc(-c2cc[n+](C)cc2)cc1 [Methyl viologen, methyl viologen]
bioluminescence vs untreated control [8]: induced increased bioluminescence
